The term logD denotes the decadic logarithm of the distribution of all forms, ionised or not, between an organic phase and buffer at a given pH. A low value points to a more hydrophilic compound. The inhibition is how much of the control response was suppressed. For orientation: IC50 means the concentration at which inhibition is half-maximal. Higher therefore signals lower potency.

The record followed here is paper PMC12016938, “A small molecule PKCε inhibitor reduces hyperalgesia induced by paclitaxel or opioid withdrawal” (JCI Insight, 2025).

The target of data set [1] is T1, PKCζ (Homo sapiens, UniProt Q05513).
T1 construct: purchased SignalChem Biotech
Kind of data set: Lance-FRET kinase assay, PKCζ. The data set is classed as biochemical. Conditions: Figure 1B. As for the experimental part: (§1) Kinase assays. CP612 was assayed against His-AVI–tagged human PKCε (1 nM) produced in Sf9 cells, and ROCK1 (Carna Biosciences; 5 nM) using the Lance-FRET kinase assay system (PerkinElmer Revvity). Other human recombinant PKCs (SignalChem Biotech) were assayed in triplicate at the following concentrations: PKCβII 1.6 nM, PKCγ 500 pM, PKCδ 5 nM, PKCθ 500 pM, and PKCζ 500 pM. PKCs were incubated in a 15 μL reaction volume with kinase buffer (20 mM Tris-HCL [pH 7.4], 10 mM MgCl2, 0.25 mM EGTA, 0.1 mg/mL BSA, and 0.15% Triton X-100), 50 nM ULight-labeled CREBtide […] (PerkinElmer, TRF0107, Revvity), and test compound. […] After incubation at 27°C for another 60 minutes, phosphorylation was detected using a FlexStation 3 Microplate Reader (Molecular Devices) in LANCE TR-FRET mode (excitation = 340 nm, emission = 665 nm) and expressed as relative fluorescence units (RFU). The percentage of inhibition was calculated as: (signal without test compound − signal with test compound)/(signal without test compound − signal without ATP) × 100. […]
(§2) Kinase assays used 11-point concentration-response curves and results were analyzed by nonlinear regression using Prism 9 (GraphPad Software) to determine IC50 values. […] Scores for pain threshold, conditioned place preference, and self-administration were analyzed by ANOVA using the following factors. […]

The target in data set [2] is T2, PKCη (Homo sapiens, UniProt P24723).
T2 construct: purchased Eurofins-DiscoverX
Kind of data set: scanMax kinome panel, PKCη. The class given is binding. The note with it: 200 nM CP612; read-out: scanMax % of control, PKCη. As for the experimental part: CP612 was screened for kinome specificity at 200 nM against 468 kinases using the scanMax assay panel from Eurofins-DiscoverX. CP612 inhibited 10 other WT kinases besides PKCε, all to < 10% of control: CLK1 (CDC Like Kinase 1), CLK4, PKN1 (Protein kinase N1), PKN2, PKCδ, PKCη, PKCθ, PRKG2 (Protein Kinase CGMP-Dependent 2), ROCK1, and ROCK2.

Data set [3] can be described thus: LogD determination (PBS/n-octanol). The data set is classed as physicochemical. The note with it: 1:1 0.1M PBS/n-octanol, mean of duplicate, 37°C. As for the experimental part: LogD determination. Test compounds were diluted by adding 12 μL of 1 mM DMSO stocks to 1,188 μL of 1:1 0.1M PBS/n-octanol in duplicate. Samples were vortexed, shaken at 600 rpm for 3 hours at 37°C. Samples (100 μL) of each phase layer were extracted in 3 volumes of acetonitrile for 15 minutes, centrifuged at 10,000g for 10 minutes, and then analyzed by LC-MS. The ratio of concentrations measured in the organic and aqueous phases was log10 transformed to determine the logD.

Data set [4] concerns the target PKCδ (Homo sapiens, UniProt Q05655). Kind of data set: Lance-FRET kinase assay, PKCδ. More on the design: purchased SignalChem Biotech. The class given is biochemical. As for the experimental part:
as §1, §2

PKCδ, sequence (Q05655 whole entry): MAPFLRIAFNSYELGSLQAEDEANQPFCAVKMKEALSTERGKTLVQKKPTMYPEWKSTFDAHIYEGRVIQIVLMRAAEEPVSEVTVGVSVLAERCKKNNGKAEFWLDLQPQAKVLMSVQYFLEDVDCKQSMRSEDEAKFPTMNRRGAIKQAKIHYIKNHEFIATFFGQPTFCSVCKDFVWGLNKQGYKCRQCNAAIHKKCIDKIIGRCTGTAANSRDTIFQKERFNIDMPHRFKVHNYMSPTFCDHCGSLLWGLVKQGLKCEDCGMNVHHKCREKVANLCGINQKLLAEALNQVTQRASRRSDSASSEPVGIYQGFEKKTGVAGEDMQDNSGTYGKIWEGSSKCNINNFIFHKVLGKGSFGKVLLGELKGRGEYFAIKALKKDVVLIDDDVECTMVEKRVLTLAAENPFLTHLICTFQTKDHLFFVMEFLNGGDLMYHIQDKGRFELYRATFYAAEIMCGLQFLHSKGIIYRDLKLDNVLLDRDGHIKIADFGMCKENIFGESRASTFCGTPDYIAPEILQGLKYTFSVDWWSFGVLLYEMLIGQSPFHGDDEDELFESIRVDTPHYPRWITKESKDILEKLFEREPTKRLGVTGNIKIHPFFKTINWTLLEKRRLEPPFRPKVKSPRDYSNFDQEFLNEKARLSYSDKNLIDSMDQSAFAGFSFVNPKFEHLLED
T2 sequence (P24723 whole entry): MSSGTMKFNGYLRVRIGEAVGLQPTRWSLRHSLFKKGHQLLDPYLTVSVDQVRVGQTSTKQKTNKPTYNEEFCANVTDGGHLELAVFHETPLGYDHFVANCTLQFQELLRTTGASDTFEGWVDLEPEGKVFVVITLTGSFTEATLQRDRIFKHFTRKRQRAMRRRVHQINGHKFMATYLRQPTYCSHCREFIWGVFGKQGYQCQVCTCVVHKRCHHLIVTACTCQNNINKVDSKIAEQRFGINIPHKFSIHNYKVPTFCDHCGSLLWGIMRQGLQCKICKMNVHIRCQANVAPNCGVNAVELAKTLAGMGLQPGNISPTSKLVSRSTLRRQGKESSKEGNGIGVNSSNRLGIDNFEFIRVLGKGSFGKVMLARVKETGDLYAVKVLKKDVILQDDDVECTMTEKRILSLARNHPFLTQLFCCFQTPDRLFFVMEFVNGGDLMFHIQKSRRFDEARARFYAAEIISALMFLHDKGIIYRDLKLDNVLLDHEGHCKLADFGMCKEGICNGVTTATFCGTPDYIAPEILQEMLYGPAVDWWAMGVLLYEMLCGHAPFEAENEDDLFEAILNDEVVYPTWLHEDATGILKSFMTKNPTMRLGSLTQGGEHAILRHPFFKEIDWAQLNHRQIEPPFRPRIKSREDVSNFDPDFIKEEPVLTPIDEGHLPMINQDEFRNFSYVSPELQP
T1 sequence (Q05513 whole entry): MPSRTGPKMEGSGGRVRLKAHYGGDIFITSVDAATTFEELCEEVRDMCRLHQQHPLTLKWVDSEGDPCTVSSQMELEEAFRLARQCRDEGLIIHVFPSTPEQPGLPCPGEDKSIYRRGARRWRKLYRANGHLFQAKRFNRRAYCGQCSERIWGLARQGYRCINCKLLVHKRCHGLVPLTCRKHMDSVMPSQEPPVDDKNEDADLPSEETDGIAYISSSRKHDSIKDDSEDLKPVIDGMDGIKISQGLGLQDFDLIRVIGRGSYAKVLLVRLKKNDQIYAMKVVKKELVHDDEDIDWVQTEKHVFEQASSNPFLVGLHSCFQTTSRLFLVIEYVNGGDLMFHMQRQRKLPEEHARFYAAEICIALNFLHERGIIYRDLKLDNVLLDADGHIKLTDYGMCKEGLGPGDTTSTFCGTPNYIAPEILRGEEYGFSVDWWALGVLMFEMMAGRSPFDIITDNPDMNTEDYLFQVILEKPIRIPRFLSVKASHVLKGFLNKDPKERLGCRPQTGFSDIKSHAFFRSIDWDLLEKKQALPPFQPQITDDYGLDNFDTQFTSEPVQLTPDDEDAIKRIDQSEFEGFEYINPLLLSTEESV

Turning to `N[C@H](CNC(=O)C1(c2ccc(Cl)cc2)CCCC1)c1ccc(C(=O)Nc2ccncc2)cc1` [CP612], in data set [1], the “Inhibition of atypical PKCζ” value was “did not inhibit”. Also, the remaining binding at 0.2 µM in data set [2] was below 10%. Besides, in data set [3], the logD at 3 h came to 1.5 ± 0.75 and the log distribution coefficient (logD) was determined as 1.504. For the same compound, in data set [4] (30 nM CP612, read-out: Inhibition of novel PKCs (PKCδ)), the inhibition at 0.03 µM was above 50%. This compound had a half-maximal inhibitory concentration (IC50) in data set [4] (Figure 1B PKC isozyme panel) of 0.0188 µM.
